Experimental data from ChEMBL document CHEMBL1201862, “PubChem BioAssay data set” (2004).
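Compound exposure: 48 hours, 5 concentrations, 96-well plates. GI50: concentration for 50% inhibition of growth.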 The source made the active and inactive calls. Cut-off read from the data, not from the text of the source: active = GI50 up to about 1.1 µM and inactive = higher.

Tests used:
Assay in all cases: inhibition of tumour cell growth, NCI panel, 48 h
[1] = test system: UO-31
[2] = test system: SK-MEL-2
[3] = test system: CCRF-CEM
[4] = test system: KM12
[5] = test system: SNB-75
[6] = test system: EKVX
[7] = test system: DMS-273
[8] = test system: HOP-62
[9] = test system: LOX IMVI
[10] = test system: OVCAR-3
[11] = test system: NCI-H23
[12] = test system: DMS-114
[13] = test system: M14
[14] = test system: SW-620
[15] = test system: K562
[16] = test system: SK-OV-3
[17] = test system: SK-MEL-5
[18] = test system: OVCAR-5
[19] = test system: NCI-H460
[20] = test system: LXFL 529
[21] = test system: M19-MEL
[22] = test system: SF-539
[23] = test system: A498
[24] = test system: SNB-19
[25] = test system: HL-60
[26] = test system: DLD-1
[27] = test system: HCT-15
[28] = test system: CAKI-1
[29] = test system: HT-29
[30] = test system: A549
[31] = test system: HCC 2998
[32] = test system: SNB-78
[33] = test system: OVCAR-8
[34] = test system: HOP-92
[35] = test system: 786-0
[36] = test system: NCI-H522
[37] = test system: Malme-3M
[38] = test system: RXF 393
[39] = test system: MOLT-4
[40] = test system: OVCAR-4
[41] = test system: ACHN
[42] = test system: HCT-116
[43] = test system: SF-268
[44] = test system: IGROV-1
[45] = test system: SN12C
[46] = test system: COLO 205
[47] = test system: TK-10
[48] = test system: SK-MEL-28
[49] = test system: UACC-257
[50] = test system: RPMI-8226
[51] = test system: UACC-62
[52] = test system: KM-20L2
[53] = test system: U-251
[54] = test system: NCI-H226
[55] = test system: SR
[56] = test system: SF-295
[57] = test system: HOP-18

## C[N+](C)(C)CC(=O)N/N=C(\C(=O)Nc1ccc(Cl)cc1)C1C(=O)N(c2ccccc2)N=C1N (stereo unspecified)
[1]
  GI50: > 100 µM (inactive)
[2]
  GI50: > 100 µM (inactive)
[3]
  GI50: > 100 µM (inactive)
[4]
  GI50: > 100 µM (inactive)
[5]
  GI50: > 100 µM (inactive)
[6]
  GI50: > 100 µM (inactive)
[7]
  GI50: > 100 µM (inactive)
[8]
  GI50: > 100 µM (inactive)
[9]
  GI50: > 100 µM (inactive)
[10]
  GI50: > 100 µM (inactive)
[11]
  GI50: > 100 µM (inactive)
[12]
  GI50: > 100 µM (inactive)
[13]
  GI50: > 100 µM (inactive)
[14]
  GI50: > 100 µM (inactive)
[15]
  GI50: > 100 µM (inactive)
[16]
  GI50: > 100 µM (inactive)
[17]
  GI50: > 100 µM (inactive)
[18]
  GI50: > 100 µM (inactive)
[19]
  GI50: > 100 µM (inactive)
[20]
  GI50: > 100 µM (inactive)
[21]
  GI50: > 100 µM (inactive)
[22]
  GI50: > 100 µM (inactive)
[23]
  GI50: > 100 µM (inactive)
[24]
  GI50: > 100 µM (inactive)
[25]
  GI50: > 100 µM (inactive)
[26]
  GI50: > 100 µM (inactive)
[27]
  GI50: > 100 µM
[28]
  GI50: > 100 µM (inactive)
[29]
  GI50: > 100 µM (inactive)
[30]
  GI50: > 100 µM (inactive)
[31]
  GI50: > 100 µM (inactive)
[32]
  GI50: > 100 µM (inactive)
[33]
  GI50: > 100 µM (inactive)
[34]
  GI50: > 100 µM (inactive)
[35]
  GI50: > 100 µM (inactive)
[36]
  GI50: > 100 µM (inactive)
[37]
  GI50: > 100 µM (inactive)
[38]
  GI50: > 100 µM (inactive)
[39]
  GI50: > 100 µM (inactive)
[40]
  GI50: > 100 µM (inactive)
[41]
  GI50: > 100 µM (inactive)
[42]
  GI50: > 100 µM (inactive)
[43]
  GI50: > 100 µM (inactive)
[44]
  GI50: > 100 µM (inactive)
[45]
  GI50: > 100 µM (inactive)
[46]
  GI50: > 100 µM (inactive)
[47]
  GI50: > 100 µM (inactive)
[48]
  GI50: > 100 µM (inactive)
[49]
  GI50: > 100 µM (inactive)
[50]
  GI50: > 100 µM (inactive)
[51]
  GI50: > 100 µM (inactive)
[52]
  GI50: > 100 µM (inactive)
[53]
  GI50: > 100 µM (inactive)

## O=C1OC(c2ccccc2)=N/C1=C/NC(CS)C(=O)O (stereo unspecified)
[1]
  GI50: > 100 µM (inactive)
[2]
  GI50: > 100 µM (inactive)
[3]
  GI50: > 100 µM (inactive)
[54]
  GI50: > 100 µM (inactive)
[5]
  GI50: 64.3 µM (inactive)
[6]
  GI50: > 100 µM (inactive)
[7]
  GI50: > 100 µM (inactive)
[55]
  GI50: > 100 µM (inactive)
[8]
  GI50: > 100 µM (inactive)
[9]
  GI50: > 100 µM (inactive)
[10]
  GI50: > 100 µM (inactive)
[11]
  GI50: > 100 µM (inactive)
[12]
  GI50: > 100 µM (inactive)
[13]
  GI50: > 100 µM (inactive)
[14]
  GI50: > 100 µM (inactive)
[15]
  GI50: > 100 µM (inactive)
[16]
  GI50: > 100 µM (inactive)
[17]
  GI50: > 100 µM (inactive)
[56]
  GI50: > 100 µM (inactive)
[18]
  GI50: > 100 µM (inactive)
[19]
  GI50: > 100 µM (inactive)
[20]
  GI50: > 100 µM (inactive)
[21]
  GI50: > 100 µM (inactive)
[22]
  GI50: > 100 µM (inactive)
[23]
  GI50: > 100 µM (inactive)
[24]
  GI50: > 100 µM (inactive)
[25]
  GI50: > 100 µM (inactive)
[26]
  GI50: > 100 µM (inactive)
[27]
  GI50: > 100 µM
[29]
  GI50: > 100 µM (inactive)
[30]
  GI50: > 100 µM (inactive)
[31]
  GI50: > 100 µM (inactive)
[32]
  GI50: > 100 µM (inactive)
[33]
  GI50: > 100 µM (inactive)
[34]
  GI50: > 100 µM (inactive)
[35]
  GI50: > 100 µM (inactive)
[36]
  GI50: 55.8 µM (inactive)
[37]
  GI50: > 100 µM (inactive)
[38]
  GI50: > 100 µM (inactive)
[39]
  GI50: > 100 µM (inactive)
[40]
  GI50: > 100 µM (inactive)
[41]
  GI50: > 100 µM (inactive)
[42]
  GI50: > 100 µM (inactive)
[43]
  GI50: > 100 µM (inactive)
[44]
  GI50: > 100 µM (inactive)
[45]
  GI50: > 100 µM (inactive)
[46]
  GI50: > 100 µM (inactive)
[47]
  GI50: > 100 µM (inactive)
[48]
  GI50: > 100 µM (inactive)
[49]
  GI50: > 100 µM (inactive)
[50]
  GI50: > 100 µM (inactive)
[51]
  GI50: > 100 µM (inactive)
[52]
  GI50: > 100 µM (inactive)
[53]
  GI50: > 100 µM (inactive)

## CCOC(=O)c1c2ccc(/C=C/C(=O)OC)ccc-2c(C(=O)OCC)c1N
[1]
  GI50: > 100 µM (inactive)
[2]
  GI50: > 100 µM (inactive)
[3]
  GI50: > 100 µM (inactive)
[54]
  GI50: > 100 µM (inactive)
[4]
  GI50: > 100 µM (inactive)
[5]
  GI50: > 100 µM (inactive)
[6]
  GI50: > 100 µM (inactive)
[7]
  GI50: > 100 µM (inactive)
[9]
  GI50: > 100 µM (inactive)
[57]
  GI50: > 100 µM (inactive)
[10]
  GI50: > 100 µM (inactive)
[11]
  GI50: > 100 µM (inactive)
[12]
  GI50: > 100 µM (inactive)
[13]
  GI50: > 100 µM (inactive)
[14]
  GI50: > 100 µM (inactive)
[15]
  GI50: > 100 µM (inactive)
[16]
  GI50: > 100 µM (inactive)
[17]
  GI50: > 100 µM (inactive)
[56]
  GI50: > 100 µM (inactive)
[18]
  GI50: > 100 µM (inactive)
[19]
  GI50: > 100 µM (inactive)
[20]
  GI50: > 100 µM (inactive)
[21]
  GI50: > 100 µM (inactive)
[22]
  GI50: > 100 µM (inactive)
[23]
  GI50: 6.52 µM (inactive)
[24]
  GI50: > 100 µM (inactive)
[25]
  GI50: > 100 µM (inactive)
[26]
  GI50: > 100 µM (inactive)
[27]
  GI50: > 100 µM
[28]
  GI50: > 100 µM (inactive)
[29]
  GI50: > 100 µM (inactive)
[30]
  GI50: > 100 µM (inactive)
[31]
  GI50: > 100 µM (inactive)
[34]
  GI50: > 100 µM (inactive)
[35]
  GI50: > 100 µM (inactive)
[36]
  GI50: > 100 µM (inactive)
[37]
  GI50: > 100 µM (inactive)
[38]
  GI50: > 100 µM (inactive)
[39]
  GI50: > 100 µM (inactive)
[40]
  GI50: > 100 µM (inactive)
[41]
  GI50: > 100 µM (inactive)
[43]
  GI50: 2.11 µM (inactive)
[44]
  GI50: > 100 µM (inactive)
[46]
  GI50: > 100 µM (inactive)
[47]
  GI50: > 100 µM (inactive)
[48]
  GI50: 1.62 µM (inactive)
[49]
  GI50: > 100 µM (inactive)
[51]
  GI50: > 100 µM (inactive)
[52]
  GI50: > 100 µM (inactive)
